# Data from patent US20240366809A1, “INHIBITOR OF PROSTATE SPECIFIC MEMBRANE ANTIGEN AND PHARMACEUTICAL USE THEREOF” (TIANJIN HENGRUI MEDICINE CO., LTD., priority 2021, published 2024).
# Where “and” joins values, the source holds several entries; their conditions need not be identical. Equal values may be shown once.
# Tests used:
# LnCaP tumor = assay: Biodistribution of 68Ga-labeled compounds in LnCaP tumor-bearing mice; format: in vivo
# Method: After single tail-vein injections into mice, the in-vivo distributions of ^68Ga-labeled compound v (Example 9) and compound x (Example 11) in the positive LnCaP tumor-bearing mice were observed.
# At 2 h after the injection, a total of 3 animals were sacrificed by cervical dislocation, and tissue samples were collected, including samples of the blood, the heart, the lungs, the liver, the spleen, the kidneys, the stomach, the intestine, the bones, the flesh, the brain, the salivary gland, the large intestine, the pancreas, and the tumor. The net weight of the tissues was measured first, and the radioactivity counts of the collected tissues were then measured using a γ-counter. The distributions of the labeled compounds in the different tissues and organs of the mice were measured. Meanwhile, a test sample was accurately diluted 100-fold, and 0.1 mL of the dilution was added to a counting tube and used as standard 1% ID (i.e., one percent of the injected dose). The radioactivity counts of the 1% ID standard and the biological samples were measured simultaneously on a γ-counter. The biodistribution data were expressed as the percentage of the radioactivity counts per gram of tissue or organ to the total injected dose (radioactivity counts) (% ID/g).
# [1] = Pharmacokinetics in blood of normal mice after single tail-vein injection; format: in vivo; details: for Blood % ID/g: normal mice, individual animals 1-4
# Method: Through single tail-vein injections into mice, the pharmacokinetics of ^68Ga-v (Example 9) and PSMA-617 in blood was studied.
# Each mouse was dosed at 50 μCi/100 μL, and blood samples were taken from the orbit 0.083, 0.25, 0.5, 1, 2, and 4 h post-dose (4 animals per time point). The blood samples were collected in pre-weighed sample tubes. The tubes were weighed and the weight of the blood samples was recorded. Then radioactivity counting was performed using a γ-counter. Meanwhile, a test sample was accurately diluted 100-fold, and 0.1 mL of the dilution was added to a counting tube and used as standard 1% ID (i.e., one percent of the injected dose). The radioactivity counts of the 1% ID standard and the biological samples were measured simultaneously on a γ-counter. The data on blood were expressed as the percentage of the radioactivity counts per gram of blood to the total injected dose (radioactivity counts) (% ID/g). Pharmacokinetic parameters were calculated from blood drug concentration data.
# human organs = assay: Absorbed doses of radiation, estimates for human organs (OLINDA software)
# Method: The AUC of drug metabolisms was calculated from the biodistribution (Bio-D) data and imported into the OLINDA software to generate doses of radiation absorbed by all the organs.
# [2] = 2 h after injection, LnCaP tumor-bearing mice
smiles,measurement,setting,value
O=C([O-])CN1CCN(CC(=O)[O-])CCN(CC(=O)N2CCO[C@]3(CC[C@H](C(=O)N[C@@H](Cc4ccc5ccccc5c4)C(=O)NCCCC[C@H](NC(=O)N[C@@H](CCC(=O)O)C(=O)O)C(=O)O)CC3)C2)CCN(CC(=O)[O-])CC1.[68Ga+3] [^68Ga-v],targeting effect on the LnCap tumor,LnCaP tumor; [2],good targeting effect on the LnCap tumor
same,"tumor uptake, comparison in words",LnCaP tumor; [2],better than ^68Ga-x (Example 11)'s
same,uptake values in the other tissues,"LnCaP tumor; 2 h after injection, tissues other than tumor, kidneys, liver, lung, spleen",very low
same,uptake value in the LnCap tumor,"LnCaP tumor; 2 h after single tail-vein injection, LnCaP tumor-bearing mice",~10 Id %/g
same,time estimated using 5 effective half-lives,[1]; 5 effective half-lives,2.27 h
same,Blood % ID/g,[1]; 0.083 h post-dose,5.89 % ID/g and 4.98 % ID/g and 5.26 % ID/g and 4.11 % ID/g
same,content of the radioactive substance in the blood,"[1]; 0.25 h after the injections, mean of n=4",1.25±0.22 % ID/g
same,Blood % ID/g,[1]; 0.25 h post-dose,1.33 % ID/g and 1.11 % ID/g and 1.52 % ID/g and 1.03 % ID/g
same,Blood % ID/g,[1]; 0.5 h post-dose,1.15 % ID/g and 0.52 % ID/g and 0.79 % ID/g and 0.99 % ID/g
same,Blood % ID/g,[1]; 1 h post-dose,0.33 % ID/g and 0.19 % ID/g (2×) and 0.16 % ID/g
same,Blood % ID/g,[1]; 2 h post-dose,0.07 % ID/g and 0.13 % ID/g and 0.10 % ID/g and 0.11 % ID/g
same,Blood % ID/g,[1]; 4 h post-dose,0.06 % ID/g and 0.02 % ID/g and 0.10 % ID/g and 0.08 % ID/g
same,effective half-life Te,[1]; according to calculations,27 min
same,elimination phase half-life,[1]; blood of mice,45.5 min
same,half-life in the blood,[1]; blood of normal mice,7.8 min
same,AUCINF_obs,"[1]; blood of normal mice, 0-4 h",1.66 ± 0.24 h* % ID/g
same,AUClast,"[1]; blood of normal mice, 0-4 h",1.67 ± 0.26 h* % ID/g
same,Cl_obs,"[1]; blood of normal mice, 0-4 h",12.17 ± 1.77 μCi/h* % ID/g
same,Cmax,"[1]; blood of normal mice, 0-4 h",5.06 ± 0.74 % ID/g
same,MRTlast,"[1]; blood of normal mice, 0-4 h",23.4 ± 1.2 min
same,Vz_obs,"[1]; blood of normal mice, 0-4 h",4.97 ± 1.09 μCi/% ID/g
same,t1/2,"[1]; blood of normal mice, 0-4 h",7.8 min
same,t1/2,"[1]; blood of normal mice, 0-4 h, listed as 68Ga-V",7.8 ± 2.4 min
same,time after dosing at which substantially metabolized,[1]; estimated as 5 times the half-life,3.9 h
same,"absorbed dose of radiation, comparison with the labeled PSMA-617 in words",human organs; from Table 5,half of that resulting from ^68Ga-PSMA-617
same,"radiation dose estimate, Adrenals",human organs; human organ: Adrenals,8.50E−03 mSv/MBq
same,"radiation dose estimate, Brain",human organs; human organ: Brain,3.99E−02 mSv/MBq
same,"radiation dose estimate, Esophagus",human organs; human organ: Esophagus,3.77E−03 mSv/MBq
same,"radiation dose estimate, Eyes",human organs; human organ: Eyes,1.84E−03 mSv/MBq
same,"radiation dose estimate, Gallbladder Wall",human organs; human organ: Gallbladder Wall,5.52E−03 mSv/MBq
same,"radiation dose estimate, Heart Wall",human organs; human organ: Heart Wall,1.62E−02 mSv/MBq
same,"radiation dose estimate, Kidneys",human organs; human organ: Kidneys,3.54E−02 mSv/MBq
same,"radiation dose estimate, Left colon",human organs; human organ: Left colon,6.87E−03 mSv/MBq
same,"radiation dose estimate, Liver",human organs; human organ: Liver,2.50E−02 mSv/MBq
same,"radiation dose estimate, Lungs",human organs; human organ: Lungs,1.05E−02 mSv/MBq
same,"radiation dose estimate, Osteogenic Cells",human organs; human organ: Osteogenic Cells,4.65E−03 mSv/MBq
same,"radiation dose estimate, Pancreas",human organs; human organ: Pancreas,9.51E−03 mSv/MBq
same,"radiation dose estimate, Prostate",human organs; human organ: Prostate,3.77E−03 mSv/MBq
same,"radiation dose estimate, Rectum",human organs; human organ: Rectum,1.99E−01 mSv/MBq
same,"radiation dose estimate, Red Marrow",human organs; human organ: Red Marrow,2.12E−03 mSv/MBq
same,"radiation dose estimate, Right colon",human organs; human organ: Right colon,3.43E−03 mSv/MBq
same,"radiation dose estimate, Salivary Glands",human organs; human organ: Salivary Glands,1.81E−03 mSv/MBq
same,"radiation dose estimate, Small Intestine",human organs; human organ: Small Intestine,1.31E−01 mSv/MBq
same,"radiation dose estimate, Spleen",human organs; human organ: Spleen,5.13E−02 mSv/MBq
same,"radiation dose estimate, Stomach Wall",human organs; human organ: Stomach Wall,8.54E−02 mSv/MBq
same,"radiation dose estimate, Testes",human organs; human organ: Testes,3.51E−04 mSv/MBq
same,"radiation dose estimate, Thymus",human organs; human organ: Thymus,1.99E−03 mSv/MBq
same,"radiation dose estimate, Thyroid",human organs; human organ: Thyroid,9.11E−04 mSv/MBq
same,"radiation dose estimate, Urinary Bladder Wall",human organs; human organ: Urinary Bladder Wall,2.27E−03 mSv/MBq
same,"radiation dose estimate, Effective Dose",human organs; human: Effective Dose,2.10E−02 mSv/MBq
same,"radiation dose estimate, Total Body",human organs; human: Total Body,0.496E−02 mSv/MBq
